How the values were obtained:
Pyricularia oryzae = assay: microbe, parasite or virus in culture; assay type: cell-based; conditions: for Observed efficacy: single active
[1] = system: Colletotrichum orbiculare; assay: Activity against Colletotrichum orbiculare in the microtiterplate test (COLLLA); assay type: cell-based; conditions: single active
Sclerotinia sclerotiorum = assay: Activity against Sclerotinia sclerotiorum in the microtiterplate test (SCLESC); assay type: cell-based; conditions: single active
Botrytis cinerea = assay: Activity against grey mold Botrytis cinerea in the microtiterplate test (BOTRCI); assay type: cell-based; conditions: single active
Staphylococcus aureus = conditions: clinically relevant fungi and gram-positive bacteria such a Staphylococcus aureus; cited from earlier work
[2] = Pyricularia oryzae, 168 h, read-out: Observed efficacy

## CCCCCCCCc1c(CC)nc2ncnn2c1N [Ametoctradin, ametoctradin]
Pyricularia oryzae; 4 ppm
  Observed efficacy: 12

## Cc1c(Br)c2ccc(F)cc2n1S(=O)(=O)c1ncn(S(=O)(=O)N(C)C)n1 [Amisulbrom, amisulbrom]
Pyricularia oryzae; 1 ppm
  Observed efficacy: 3
Pyricularia oryzae; 4 ppm
  Observed efficacy: 11

## CC(C)[C@H](NC(=O)O)C(=O)N[C@H](C)c1nc2ccc(F)cc2s1 [Benthiavalicarb, benthiavalicarb]
Pyricularia oryzae; 4 ppm
  Observed efficacy: 0
Pyricularia oryzae; 16 ppm
  Observed efficacy: 8

## O=C(Nc1ccccc1-c1ccc(Cl)cc1)c1cccnc1Cl [Boscalid, boscalid]
Pyricularia oryzae; [2]
  inhibition of growth at 1 ppm: 5%

## Cc1ccc(-c2c(Cl)nc(C#N)n2S(=O)(=O)N(C)C)cc1 [Cyazofamid, cyazofamid]
Pyricularia oryzae; [2]
  inhibition of growth at 0.25 ppm: 6%
  inhibition of growth at 1 ppm: 16%

## CCNC(=O)NC(=O)/C(C#N)=N/OC [Cymoxanil, cymoxanil]
Pyricularia oryzae; [2]
  inhibition of growth at 16 ppm: 3%
  inhibition of growth at 63 ppm: 11%

## N#Cc1sc2c(=O)c3ccccc3c(=O)c=2sc1C#N [Dithianon, dithianon]
[1]; 0.063 ppm
  Observed efficacy: 0
Sclerotinia sclerotiorum; 1 ppm
  Observed efficacy: 57

## O=[N+]([O-])c1cc(C(F)(F)F)c(Cl)c([N+](=O)[O-])c1Nc1ncc(C(F)(F)F)cc1Cl [Fluazinam, fluazinam]
Pyricularia oryzae; [2]
  inhibition of growth at 0.063 ppm: 8%

## O=C(NCc1ncc(C(F)(F)F)cc1Cl)c1c(Cl)cccc1Cl [Fluopicolid, fluopicolide]
Pyricularia oryzae; 1 ppm
  Observed efficacy: 2

## CO/N=C(/C1=NOCCO1)c1ccccc1Oc1ncnc(Oc2ccccc2Cl)c1F [Fluoxastrobin, fluoxastrobin]
Pyricularia oryzae; [2]
  inhibition of growth at 0.016 ppm: 8%

## Cn1cc(C(=O)Nc2ccccc2-c2cc(F)c(F)c(F)c2)c(C(F)F)n1 [Fluxapyroxad, fluxapyroxad]
Pyricularia oryzae; 0.016 ppm
  Observed efficacy: 3

## Cc1ccc(C(C)NC(=O)[C@@H](NC(=O)OC(C)C)C(C)C)cc1 (stereo partly shown) [Iprovalicarb, iprovalicarb]
Pyricularia oryzae; 1 ppm
  Observed efficacy: 8
Pyricularia oryzae; 4 ppm
  Observed efficacy: 17

## C#CCOc1ccc(CCNC(=O)C(OCC#C)c2ccc(Cl)cc2)cc1OC (stereo not shown) [Mandipropamid, mandipropamid]
Pyricularia oryzae; 16 ppm
  Observed efficacy: 7
Sclerotinia sclerotiorum; 63 ppm
  Observed efficacy: 29
Botrytis cinerea; 63 ppm
  Observed efficacy: 16

## Cc1cccc(-n2nnn(C)c2=O)c1COc1ccn(-c2ccc(Cl)cc2)n1 [Methyltetraprol, metyltetraprole]
[1]; 0.063 ppm
  Observed efficacy: 19
Pyricularia oryzae; 0.016 ppm
  Observed efficacy: 16

## COc1cc(C)c(C(=O)c2c(OC)ccc(Br)c2C)c(OC)c1OC [Metrafenon, metrafenone]
Pyricularia oryzae; [2]
  inhibition of growth at 0.25 ppm: 3%

## Cc1cc(C(F)(F)F)nn1CC(=O)N1CCC(c2nc(C3=NOC(c4c(F)cccc4F)C3)cs2)CC1 (stereo not shown) [Oxathiapiprolin, oxathiapiprolin]
Botrytis cinerea; 16 ppm
  Observed efficacy: 11

## COc1cc(C)c(C(=O)c2c(OC)ncc(Cl)c2C)c(OC)c1OC [Pyriofenon, pyriofenone]
[1]; 16 ppm
  Observed efficacy: 20
Pyricularia oryzae; 4 ppm
  Observed efficacy: 6
Pyricularia oryzae; 16 ppm
  Observed efficacy: 18
Botrytis cinerea; 16 ppm
  Observed efficacy: 12

## CCCN(CC)CC1COC2(CCC(C(C)(C)C)CC2)O1 (stereo not shown) [Spiroxamin, spiroxamine]
[1]; 16 ppm
  Observed efficacy: 8
Pyricularia oryzae; [2]
  inhibition of growth at 4 ppm: 3%
  inhibition of growth at 16 ppm: 17%

## CON=C(C(=O)OC)c1ccccc1CON=C(C)c1cccc(C(F)(F)F)c1 [Trifloxystrobin, trifloxystrobin]
Sclerotinia sclerotiorum; 0.063 ppm
  Observed efficacy: 41
Botrytis cinerea; 0.063 ppm
  Observed efficacy: 0

## COC(=O)CC(NC(=O)[C@@H](NC(=O)OC(C)C)C(C)C)c1ccc(Cl)cc1 (stereo partly shown) [Valifenalat, valifenalate]
Pyricularia oryzae; 4 ppm
  Observed efficacy: 1

## CCC(C)(NC(=O)c1cc(Cl)c(C)c(Cl)c1)C(=O)CCl (stereo not shown) [Zoxamid, zoxamide]
[1]; 1 ppm
  Observed efficacy: 0
Pyricularia oryzae; [2]
  inhibition of growth at 4 ppm: 39%
Sclerotinia sclerotiorum; 1 ppm
  Observed efficacy: 0
Botrytis cinerea; 1 ppm
  Observed efficacy: 11

## fosetyl-aluminium
Pyricularia oryzae; 4 ppm
  Observed efficacy: 4

## fusaricidin A
Staphylococcus aureus
  MIC value range: 0.78 to 3.12 µg/mL

## mancozeb
Pyricularia oryzae; 0.25 ppm
  Observed efficacy: 5

## metiram
Pyricularia oryzae; 16 ppm
  Observed efficacy: 17

From patent US20240065271A1, “MIXTURES AND COMPOSITIONS COMPRISING FUSARICIDIN A, FUSARICIDIN B AND FUNGICIDES” (BASF SE, priority 2020, published 2024)
